Legend:
Type in all cases: cell-based, human
[1] = tested on: CMN1 (normal melanocytes); assay: Sulforhodamine B cell growth assay, normal cells
Description: (§1) Cell Culture treatments. Cells were maintained in RPMI or DMEM (Mediatech, Herndon, Va.) containing 5% fetal bovine serum (Hyclone, Logan, Utah) and 1% Antibiotic-Antimycotic (GEBCO, Invitrogen Carlsbad, Calif.) as recommended per the American Type Culture Collection media protocol for each cell line. Cells were maintained in 5% CO2 at 37° C. in a humidified tissue culture incubator. Primary non-tumorigenic […] cell lines (DMN-1 and CMN-1), and human foreskin fibroblasts (HFF; CCF, Cleveland, Ohio) were cultured in DMEM-F12 medium supplemented with 10% FBS. Cells were confirmed as mycoplasma free.
(§2) Sulforhodamine B Cell Growth Assay. Cells were harvested with 0.5% trypsin/0.53 mM EDTA, washed with PBS and resuspended in media containing 10% FBS. Cells were plated in 96-well plates in 0.2-ml aliquots. Cells were allowed to adhere to the plate for 4 h and then NO-Cbl was added in different concentrations to the assay plate. A minimum of four were performed for each treatment. After 16 h, various chemotherapeutic agents including cytokines were added at different concentrations. Growth was monitored by the sulforhodamine B (SRB; Sigma Chemical, St. Louis, Mo.) colorimetric assay. After 36 h, the medium was removed, and the cells were fixed with 10% trichloroacetic acid and stained with SRB. Bound dye was eluted from the cells with 10 mM Tris-HCl (pH 10.5) and absorbance was measured at 570 nm using a Lab systems Multiskan RC 96-well plate reader (Lab Systems Multiscan RC, Thermo Lab Systems, Franklin, Mass.). To quantify the growth of the cells, the experimental absorbance values (Aexp) were compared with initial absorbance readings representing the starting cell numbers (Aini). To determine the starting cell number, an additional 96-well plate was seeded with cells and fixed at the beginning of the experiment. After 5 days growth, the untreated control cells and drug treated cells were fixed and stained with SRB. The absorbances derived from the initial plate and from the untreated cells at the end of the growth period (Afin) were defined as 0% and 100% growth, respectively. The percentage control growth (100%×[Aexp−Aini]/[Afin−Aini]) is expressed as a percentage of untreated controls.
(§3) Anti-tumor effects of NO-Cbl, Apo2L/TRAIL, and the combination iii vitro. NO-Cbl enhances the anti-cellular effects of Apo2L/TRAIL against malignant Apo2L/TRAIL-resistant cell lines. First the antiproliferative effects of three melanoma lines A375, WM9, and WM3211 (previously reported to be resistant to Apo2L/TRAIL) were measured. Although Apo2L/TRAIL was used as the chemotherapeutic agents, a wide range of anti-cancer drugs and techniques would be enhanced by the NO based cobalamin compounds due to their effective inhibition of the cell survival mechanism. Such other chemotherapeutic agents are tested in the following examples. […] The SRB antiproliferative assay, used by the National Cancer Institute (NCI) to evaluate new chemotherapeutic agents was used herein. Median effect analysis was used to analyze drug interactions between NO-Cbl and Apo2L/TRAIL. Cells were pre-treated with NO-Cbl for 16 h followed by Apo2L/TRAIL for 24 h.
(§4) The effects of nitrosylcobalamin (NO-Cbl), Apo2L/TRAIL, and the combination on the proliferation of melanoma cell lines A375, WM9, and WM3211 and normal cell lines CMN1, DMN1, and fibroblasts were observed. Cells were treated with NO-Cbl, Apo2L/TRAIL, or pre-treated with NO-Cbl followed by Apo2L/TRAIL for three days, and growth was measured by the colorimetric sulforhodamine B assay. Data points were generated to represent the mean of four replicates±standard error of the mean (SEM). Synergy between NO-Cbl and Apo2L/TRAIL was determined by median effect analysis, (combination index >1 indicates antagonism, =1 indicates additivity, and <1 indicates synergy). The combination index is represented in FIG. 1 and as the combination index observed at the specified concentrations. […]

[2] = tested on: normal fibroblasts; assay: Sulforhodamine B cell growth assay, normal cells
Description: as §1, §2, §3, §4

[3] = tested on: DMN1 (normal melanocytes); assay: Sulforhodamine B cell growth assay, normal cells
Description: as §1, §2, §3, §4

[4] = tested on: NF-κB-luciferase reporter in A375 cells; assay: Dual luciferase NF-κB reporter assay
Description: Dual Luciferase NF-κB Reporter Assay. Please see FIG. 6. The NP-κB-luciferase (NF-κB-luc) reporter plasmid, containing a 2×NF-κB response element fused to the luciferase, has been previously characterized. Renilla luciferase (pRL-TK, Promega, Madison, Wis.) vector was used to normalize for transfection efficiency. A375 cells were transfected with 20 μg NF-κB-luc and 10 μg PRL-TK using Lipofectamine plus (Gibco BRL/Life Technologies, Invitrogen Carlsbad, Calif.). After transfection cells were allowed to recover overnight and were plated in 6 well plates. […] Cells were then harvested in 1× passive lysis buffer and luciferase activity was measured according to the manufacturer's protocol (Promega, Madison, Wis.) using a Wallac 1420 multilabel counter (Perkin Elmer, Gaithersburg, Md.). The fold induction of NF-κB-luciferase for each treatment was based on untreated values normalized to the fold induction of pRL-TK reporter values. The assays were performed in triplicate.
Transient transfection assays were performed to assess NF-κB transcriptional activity. A375 cells were co-transfected with a NF-κB-luciferase reporter (NF-κB-luc) and Renilla luciferase (to assess transfection efficiency). Cells were pre-treated with NO-Cbl (100 μM) for 16 h followed by treatment with Apo2L/TRAIL (100 ng/ml) or TNF-α (10 ng/ml) for 4 hours.

nitrosylcobalamin [NO-Cbl] was tested, and the “antiproliferative effect on normal cells” value [1] was “completely resistant”, the “antiproliferative effect on normal cells” value [2] was “completely resistant” and the “antiproliferative effect on normal cells” value [3] was “completely resistant”. For the same substance, the “inhibition of NF-κB activity in response to Apo2L/TRAIL” value ([4]; NO-Cbl 100 μM 16 h followed by Apo2L/TRAIL 100 ng/ml 4 hours) was 34% and the “inhibition of NF-κB activity in response to TNF-α” value ([4]; NO-Cbl 100 μM 16 h followed by TNF-α 10 ng/ml 4 hours) was 51%.
